From ChEMBL document CHEMBL5291721, “A preclinical secondary pharmacology resource illuminates target-adverse drug reaction associations of marketed drugs” (Nat Commun, 2023) come the findings set out here.

One test concerns the target T1, B2 bradykinin receptor (Homo sapiens, UniProt P30411).
T1 sequence (P30411 whole entry): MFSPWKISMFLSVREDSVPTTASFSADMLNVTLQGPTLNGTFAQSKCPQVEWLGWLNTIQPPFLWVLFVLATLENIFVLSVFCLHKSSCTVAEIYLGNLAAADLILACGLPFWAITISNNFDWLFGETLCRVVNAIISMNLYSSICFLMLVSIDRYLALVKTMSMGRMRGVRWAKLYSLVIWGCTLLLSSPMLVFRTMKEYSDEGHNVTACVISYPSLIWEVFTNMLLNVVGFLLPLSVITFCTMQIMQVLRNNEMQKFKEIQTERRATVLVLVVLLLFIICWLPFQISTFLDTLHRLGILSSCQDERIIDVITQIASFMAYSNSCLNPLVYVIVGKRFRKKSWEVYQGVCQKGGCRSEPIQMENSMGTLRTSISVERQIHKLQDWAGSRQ

The target of a further test is T2, Progesterone receptor (Homo sapiens, UniProt P06401).
T2 sequence (P06401 whole entry): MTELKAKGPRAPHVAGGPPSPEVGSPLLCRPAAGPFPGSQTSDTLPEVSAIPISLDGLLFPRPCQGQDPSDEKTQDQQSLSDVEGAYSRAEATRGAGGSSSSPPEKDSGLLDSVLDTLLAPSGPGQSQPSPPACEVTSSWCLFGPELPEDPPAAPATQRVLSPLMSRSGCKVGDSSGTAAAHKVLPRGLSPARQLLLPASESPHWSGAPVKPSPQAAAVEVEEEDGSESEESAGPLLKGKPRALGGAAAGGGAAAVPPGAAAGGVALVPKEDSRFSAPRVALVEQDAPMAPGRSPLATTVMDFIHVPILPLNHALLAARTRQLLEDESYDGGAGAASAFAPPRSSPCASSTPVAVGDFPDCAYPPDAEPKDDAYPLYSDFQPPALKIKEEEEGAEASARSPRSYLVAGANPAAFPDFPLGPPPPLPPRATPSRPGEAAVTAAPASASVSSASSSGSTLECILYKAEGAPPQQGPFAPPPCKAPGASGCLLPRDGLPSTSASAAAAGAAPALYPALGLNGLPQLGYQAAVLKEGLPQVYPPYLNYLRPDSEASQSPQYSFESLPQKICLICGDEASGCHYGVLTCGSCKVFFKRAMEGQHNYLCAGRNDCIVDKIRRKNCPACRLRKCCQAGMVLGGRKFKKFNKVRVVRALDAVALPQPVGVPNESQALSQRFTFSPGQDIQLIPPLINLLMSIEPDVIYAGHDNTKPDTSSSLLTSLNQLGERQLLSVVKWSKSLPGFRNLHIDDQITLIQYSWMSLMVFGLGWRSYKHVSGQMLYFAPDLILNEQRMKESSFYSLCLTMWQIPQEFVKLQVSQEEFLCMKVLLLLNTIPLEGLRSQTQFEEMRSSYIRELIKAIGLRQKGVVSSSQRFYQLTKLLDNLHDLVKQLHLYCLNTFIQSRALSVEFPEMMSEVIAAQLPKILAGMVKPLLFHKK
It counts as functional.

Test [1] concerns the target T3, Alpha-1A adrenergic receptor (Homo sapiens, UniProt P35348).
T3 sequence (P35348 whole entry): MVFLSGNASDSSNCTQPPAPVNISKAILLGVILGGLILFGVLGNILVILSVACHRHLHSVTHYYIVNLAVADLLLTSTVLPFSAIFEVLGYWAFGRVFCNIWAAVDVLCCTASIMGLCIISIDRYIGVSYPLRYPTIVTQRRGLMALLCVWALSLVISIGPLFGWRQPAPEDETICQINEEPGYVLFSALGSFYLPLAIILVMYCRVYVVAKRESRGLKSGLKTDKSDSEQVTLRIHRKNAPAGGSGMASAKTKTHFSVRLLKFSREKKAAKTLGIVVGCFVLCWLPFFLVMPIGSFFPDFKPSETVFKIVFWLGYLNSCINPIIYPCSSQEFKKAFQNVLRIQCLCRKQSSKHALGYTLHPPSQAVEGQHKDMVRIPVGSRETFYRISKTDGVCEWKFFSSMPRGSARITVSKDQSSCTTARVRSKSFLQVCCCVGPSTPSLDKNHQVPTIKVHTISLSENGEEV
In kind it is functional, cell-based.

A further test concerns the target Acetylcholinesterase (Homo sapiens, UniProt P22303). It counts as functional.
For test [2], the target named is T4, Alpha-2A adrenergic receptor (Homo sapiens, UniProt P08913).
T4 sequence (P08913 whole entry): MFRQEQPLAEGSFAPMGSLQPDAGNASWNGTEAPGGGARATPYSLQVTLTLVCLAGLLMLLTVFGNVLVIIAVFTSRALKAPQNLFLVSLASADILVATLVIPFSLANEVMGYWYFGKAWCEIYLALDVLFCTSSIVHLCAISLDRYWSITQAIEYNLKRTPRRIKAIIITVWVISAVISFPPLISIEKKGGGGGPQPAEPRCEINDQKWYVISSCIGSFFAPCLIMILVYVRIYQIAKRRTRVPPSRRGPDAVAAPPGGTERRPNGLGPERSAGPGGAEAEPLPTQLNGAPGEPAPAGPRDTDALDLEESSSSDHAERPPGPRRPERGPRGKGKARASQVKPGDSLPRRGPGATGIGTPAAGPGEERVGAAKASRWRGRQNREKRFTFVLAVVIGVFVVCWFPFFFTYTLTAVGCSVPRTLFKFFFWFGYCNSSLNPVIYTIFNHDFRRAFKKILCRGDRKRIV

In test [3] the target is T5, Muscarinic acetylcholine receptor M1 (Homo sapiens, UniProt P11229).
T5 sequence (P11229 whole entry): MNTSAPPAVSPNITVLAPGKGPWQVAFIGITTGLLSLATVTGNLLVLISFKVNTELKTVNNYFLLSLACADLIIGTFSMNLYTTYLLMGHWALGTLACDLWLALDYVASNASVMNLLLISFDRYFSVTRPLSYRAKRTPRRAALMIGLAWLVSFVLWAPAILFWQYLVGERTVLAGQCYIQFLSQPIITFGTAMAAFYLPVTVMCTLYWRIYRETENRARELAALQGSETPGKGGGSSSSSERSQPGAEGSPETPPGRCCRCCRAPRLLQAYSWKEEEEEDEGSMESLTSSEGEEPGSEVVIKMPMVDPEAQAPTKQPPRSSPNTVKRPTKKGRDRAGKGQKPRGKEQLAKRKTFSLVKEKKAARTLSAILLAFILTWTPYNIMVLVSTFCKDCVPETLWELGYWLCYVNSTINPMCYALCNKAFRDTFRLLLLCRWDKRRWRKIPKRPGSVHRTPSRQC
It counts as functional.

Another test addresses Histamine H1 receptor (Homo sapiens, UniProt P35367).
Test [4] deals with 5-hydroxytryptamine receptor 2A (Homo sapiens, UniProt P28223). In kind it is functional, cell-based.

A word on the AC50: it is the concentration at which the activity in the assay is half-maximal.

Structures are written as SMILES.
Further: assay procedure not described here.

Sequence of Histamine H1 receptor (P35367 whole entry): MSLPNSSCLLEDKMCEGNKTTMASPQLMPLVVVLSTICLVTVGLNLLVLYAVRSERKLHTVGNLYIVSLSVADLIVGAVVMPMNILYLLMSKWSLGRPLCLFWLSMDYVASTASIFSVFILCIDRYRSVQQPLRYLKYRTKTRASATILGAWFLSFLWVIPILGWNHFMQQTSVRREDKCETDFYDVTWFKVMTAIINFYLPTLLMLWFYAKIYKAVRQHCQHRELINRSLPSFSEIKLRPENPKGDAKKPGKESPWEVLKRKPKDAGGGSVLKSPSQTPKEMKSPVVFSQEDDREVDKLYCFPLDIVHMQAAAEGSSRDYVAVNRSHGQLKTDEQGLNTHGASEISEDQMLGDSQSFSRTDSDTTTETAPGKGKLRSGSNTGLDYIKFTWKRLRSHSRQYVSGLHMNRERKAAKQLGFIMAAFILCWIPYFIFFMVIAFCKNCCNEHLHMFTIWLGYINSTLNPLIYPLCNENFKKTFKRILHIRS
Sequence of Acetylcholinesterase (P22303 whole entry): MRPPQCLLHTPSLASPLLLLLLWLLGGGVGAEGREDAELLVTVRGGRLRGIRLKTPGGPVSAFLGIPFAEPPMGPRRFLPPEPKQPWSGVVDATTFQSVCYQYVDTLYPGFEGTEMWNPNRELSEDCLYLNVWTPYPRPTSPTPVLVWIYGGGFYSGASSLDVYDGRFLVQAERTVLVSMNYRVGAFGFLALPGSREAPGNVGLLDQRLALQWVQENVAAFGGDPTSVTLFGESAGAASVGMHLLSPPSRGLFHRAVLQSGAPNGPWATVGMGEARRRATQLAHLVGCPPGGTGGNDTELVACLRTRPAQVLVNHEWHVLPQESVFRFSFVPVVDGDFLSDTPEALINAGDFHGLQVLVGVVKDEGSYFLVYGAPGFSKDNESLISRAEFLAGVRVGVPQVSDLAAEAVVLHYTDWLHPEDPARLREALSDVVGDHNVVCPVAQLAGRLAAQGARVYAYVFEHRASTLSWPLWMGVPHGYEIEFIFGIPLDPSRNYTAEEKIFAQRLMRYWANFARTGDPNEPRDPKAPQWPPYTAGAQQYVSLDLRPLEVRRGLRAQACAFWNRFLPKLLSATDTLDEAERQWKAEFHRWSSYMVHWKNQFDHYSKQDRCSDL
Sequence of 5-hydroxytryptamine receptor 2A (P28223 whole entry): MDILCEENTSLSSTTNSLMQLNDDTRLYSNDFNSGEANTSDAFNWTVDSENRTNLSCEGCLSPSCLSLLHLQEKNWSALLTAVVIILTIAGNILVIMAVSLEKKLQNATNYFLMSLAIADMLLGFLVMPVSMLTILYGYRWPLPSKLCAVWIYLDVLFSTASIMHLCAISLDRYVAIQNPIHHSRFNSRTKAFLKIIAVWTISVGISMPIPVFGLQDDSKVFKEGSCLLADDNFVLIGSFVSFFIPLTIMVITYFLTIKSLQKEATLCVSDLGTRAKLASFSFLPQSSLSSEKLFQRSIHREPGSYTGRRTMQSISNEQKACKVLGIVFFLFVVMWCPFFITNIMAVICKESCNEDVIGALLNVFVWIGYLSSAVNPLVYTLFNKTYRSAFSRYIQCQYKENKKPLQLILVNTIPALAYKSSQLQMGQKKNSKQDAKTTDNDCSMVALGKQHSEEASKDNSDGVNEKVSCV

In the case of `C[N+]1(C)CCC(OC(=O)C(O)(c2ccccc2)C2CCCC2)C1` (stereo not drawn) [GLYCOPYRRONIUM BROMIDE], the AC50 on B2 bradykinin receptor is > 30 µM; on Progesterone receptor it was > 10 µM.

With `c1ccc([C@H]2CN3CCSC3=N2)cc1` [LEVAMISOLE], the AC50 (in test [1]; at Progesterone receptor) was > 30 µM in each case.

Turning to `CN(C)CCC(c1ccc(Cl)cc1)c1ccccn1` (stereo not drawn) [CHLORPHENIRAMINE], the concentration at half-maximal activity (AC50) (in test [1]; at B2 bradykinin receptor) was > 30 µM in each case.

As to `CCC(=O)NCC[C@@H]1CCc2ccc3c(c21)CCO3` [RAMELTEON], the AC50 (at Acetylcholinesterase; in test [2]) was > 30 µM in each case.

As for `CCOC(=O)[C@H](CCc1ccccc1)N[C@@H](C)C(=O)N1[C@H](C(=O)O)C[C@@H]2CCC[C@@H]21`, the concentration at half-maximal activity (AC50) (in test [1]; on B2 bradykinin receptor) was > 30 µM throughout.

On to `C[N+](C)(C)CCO` [CHOLINE], for which the AC50 (on Acetylcholinesterase; in test [2]) was > 30 µM throughout.

Turning to `CCCN1C[C@H](CSC)C[C@@H]2c3cccc4[nH]cc(c34)C[C@H]21` [PERGOLIDE], the concentration at half-maximal activity (AC50) in test [1] was 0.33 µM; at B2 bradykinin receptor, > 30 µM; at Progesterone receptor it was > 30 µM.

In the case of `Cc1ccc(-c2cc(C(F)(F)F)nn2-c2ccc(S(N)(=O)=O)cc2)cc1` [CELECOXIB], the AC50 (in test [1]; at B2 bradykinin receptor) was > 30 µM each time.

In the case of `CCc1oc2ccccc2c1C(=O)c1cc(I)c(O)c(I)c1` [BENZIODARONE], the AC50 on Acetylcholinesterase was > 30 µM; in test [2] it was 29.9 µM.

Turning to `O=P1(NCCCl)OCCCN1CCCl` (stereo not drawn) [IFOSFAMIDE], the AC50 on B2 bradykinin receptor and on Progesterone receptor was > 30 µM in each case.

Regarding `CCCSc1ccc2nc(NC(=O)OC)[nH]c2c1` [ALBENDAZOLE], the concentration at half-maximal activity (AC50) on B2 bradykinin receptor and at Progesterone receptor was > 10 µM in each case.

Consider `CCC(C)n1ncn(-c2ccc(N3CCN(c4ccc(OCC5COC(Cn6cncn6)(c6ccc(Cl)cc6Cl)O5)cc4)CC3)cc2)c1=O` (stereo not drawn) [ITRACONAZOLE], for which the AC50 (in test [1]; at B2 bradykinin receptor; at Progesterone receptor) was > 30 µM each time.

Consider `C1CCC(C(CC2CCCCN2)C2CCCCC2)CC1` (stereo not drawn) [PERHEXILINE], for which the results for the AC50 (in test [1]; at Progesterone receptor) were > 10 µM and > 30 µM, respectively.

For the compound `CN(C)CCC=C1c2ccccc2C(C)(C)c2ccccc21`, the AC50 was > 30 µM in test [1], 0.129 µM in test [3], 0.0369 µM at Histamine H1 receptor and > 30 µM on Progesterone receptor.

Turning to `C[C@@H](O)[C@H]1C(=O)N2C(C(=O)O)=C(S[C@@H]3CN[C@H](C(=O)N(C)C)C3)[C@H](C)[C@H]12` [MEROPENEM], the AC50 in test [1] was > 300 µM; on B2 bradykinin receptor, > 10 µM; at Progesterone receptor, > 300 µM.

With `C[C@]12CCC(=O)C=C1CC[C@@H]1[C@@H]2[C@@H](O)C[C@@]2(C)[C@H]1CC[C@]2(O)C(=O)CO` [HYDROCORTISONE], the AC50 (in test [1]; at B2 bradykinin receptor) was > 30 µM in each case.

`CN(C)/N=N/c1[nH]cnc1C(N)=O` [DACARBAZINE]: the AC50 on B2 bradykinin receptor and at Progesterone receptor was > 10 µM in each case.

With `Clc1ccc2nsnc2c1NC1=NCCN1` [TIZANIDINE], the AC50 in test [1] was 0.0098 µM; on B2 bradykinin receptor it was > 30 µM; in test [3], > 10 µM; at Histamine H1 receptor, > 10 µM.

In the case of `CC1=C(C(=O)O)N2C(=O)[C@@H](NC(=O)[C@H](N)c3ccccc3)[C@H]2SC1` [CEPHALEXIN ANHYDROUS], the concentration at half-maximal activity (AC50) (in test [1]; on B2 bradykinin receptor) was > 30 µM in each case.

As for `NS(=O)(=O)Cc1noc2ccccc12` [ZONISAMIDE], the AC50 (on B2 bradykinin receptor; in test [3]; at Histamine H1 receptor; in test [4]; on Progesterone receptor) was > 10 µM in each case.

As for `CN1C(=O)CCS(=O)(=O)C1c1ccc(Cl)cc1` (stereo not drawn) [CHLORMEZANONE], the half-maximal activity concentration (AC50) was > 10 µM on B2 bradykinin receptor; > 30 µM in test [3]; > 30 µM on Histamine H1 receptor; > 10 µM in test [4]; > 10 µM on Progesterone receptor.

Turning to `C[C@H]1CNCCc2ccc(Cl)cc21` [LORCASERIN], the AC50 is > 30 µM in test [1], > 30 µM in test [3], 28 µM at Histamine H1 receptor and > 30 µM on Progesterone receptor.

With `CN(C)CCn1nnnc1SCC1=C(C(=O)O)N2C(=O)[C@@H](NC(=O)Cc3csc(N)n3)[C@H]2SC1` [CEFOTIAM], the AC50 (on Acetylcholinesterase; in test [2]) was > 30 µM in each case.

For `N[C@@H]1[C@H]2CN(c3nc4c(cc3F)c(=O)c(C(=O)O)cn4-c3ccc(F)cc3F)C[C@@H]12` [TROVAFLOXACIN], the AC50 (in test [1]; on Progesterone receptor) was > 30 µM in each case.

Consider `Clc1ccc(C(c2ccccc2Cl)C(Cl)Cl)cc1` (stereo not drawn) [MITOTANE], for which the half-maximal activity concentration (AC50) is > 10 µM at B2 bradykinin receptor and 0.45 µM at Progesterone receptor.

`Cc1cc(C#N)cc(C)c1Oc1nc(Nc2ccc(C#N)cc2)nc(N)c1Br` [ETRAVIRINE]: the AC50 is > 30 µM at Acetylcholinesterase and 20 µM in test [2].

`N[C@@H](C(=O)N[C@@H]1C(=O)N2C(C(=O)O)=C(Cl)CC[C@H]12)c1ccccc1` [LORACARBEF ANHYDROUS]: the AC50 (on Acetylcholinesterase; in test [2]) was > 30 µM throughout.

Take `CC[C@H]1OC(=O)[C@H](C)[C@@H](O[C@H]2C[C@@](C)(OC)[C@@H](O)[C@H](C)O2)[C@H](C)[C@@H](O[C@@H]2O[C@H](C)C[C@H](N(C)C)[C@H]2O)[C@](C)(O)C[C@@H](C)CN(C)[C@H](C)[C@@H](O)[C@]1(C)O` [AZITHROMYCIN]: the AC50 (at Acetylcholinesterase; in test [1]; in test [2]; on B2 bradykinin receptor) was > 30 µM in each case.

For `O=C1Nc2ccc(Cl)cc2[C@@](C#CC2CC2)(C(F)(F)F)O1` [EFAVIRENZ], the concentration at half-maximal activity (AC50) (in test [1]; on B2 bradykinin receptor; in test [3]; at Histamine H1 receptor; on Progesterone receptor) was > 30 µM throughout.
